Measurements published in US9850283B2, “Macrocyclic inhibitors of the PD-1/PD-L1 and CD80(B7-1)/PD-L1 protein/protein interactions” (BRISTOL-MYERS SQUIBB COMPANY, priority 2013, dated 2017).
Read-outs that look alike come from different tables or passages of the source. Starred links: 1 amine or outer side, 2 acyl side, 3 side chain; linkers in the order of their positions; H or OH if unused. Positions of bridges follow the written chain, without caps; N, C: chain ends. Non-standard residues stand in square brackets, D forms with d. Residues, ends and D or L forms follow the SMILES beside them. ξ: configuration not given here. Phe(3,4,5-F3) = N[C@@H](Cc1cc(F)c(F)c(F)c1)C(=O)O; X12 = O=C([C@H](Cc1cc(Cl)c(F)c(Cl)c1)N[*:1])[*:2]; Phe(3,4-Cl2) = N[C@@H](Cc1ccc(Cl)c(Cl)c1)C(=O)O; Phe(4-Cl) = N[C@@H](Cc1ccc(Cl)cc1)C(=O)O; Hyp = O=C(O)[C@@H]1C[C@@H](O)CN1; NMeF = CN[C@@H](Cc1ccccc1)C(=O)O; X4 = O=C([C@H]1COCCN1[*:1])[*:2]; dHyp = O=C(O)[C@H]1C[C@H](O)CN1; NMeL = CN[C@@H](CC(C)C)C(=O)O; NMeNle = CCCC[C@H](NC)C(=O)O; NMeM = CN[C@@H](CCSC)C(=O)O; dPip = O=C(O)[C@H]1CCCCN1; NMeA = CN[C@@H](C)C(=O)O; Orn = NCCC[C@H](N)C(=O)O; Dab = NCC[C@H](N)C(=O)O; Dap = NC[C@H](N)C(=O)O; ξhCys = NC(CCS)C(=O)O; ξC = NC(CS)C(=O)O; Sar = CNCC(=O)O

Legend:
[1] = molecular target: T1, Human PD-L1/PD-1 (Homo sapiens, UniProt Q9NZQ7); test: HTRF PD-1-Ig/PD-L1-His binding assay (human PD-L1); settings: cluster symbol; read-out: HTRF IC50 cluster
T1 construct: made in house; host or cells: HEK293T
T1 sequence (Q9NZQ7 with tags, fused parts or gaps): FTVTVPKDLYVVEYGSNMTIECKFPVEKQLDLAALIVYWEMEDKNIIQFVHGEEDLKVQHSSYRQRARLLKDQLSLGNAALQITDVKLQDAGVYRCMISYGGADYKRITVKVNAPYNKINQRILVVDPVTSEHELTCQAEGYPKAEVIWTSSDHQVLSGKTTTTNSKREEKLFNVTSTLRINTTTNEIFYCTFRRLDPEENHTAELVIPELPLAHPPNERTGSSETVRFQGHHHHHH
Summary of the method: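 Readout: time-resolved FRET between Eu cryptate-labeled anti-Ig (1 nM final) and APC-labeled anti-His (20 nM final) antibodies. These detect interaction of Fc-fused PD-1 with His-tagged human PD-L1 in dPBS containing 0.1% BSA and 0.05% Tween-20.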

[2] = molecular target: T2, LK35.2-hPD-L1 cells / PE-labeled PD-1-Ig (Homo sapiens, UniProt Q9NZQ7); test: LK35.2-hPD-L1 cell binding high-content screening assay; assay type: cell-based; settings: cluster symbol, read-out: CBA IC50 cluster
T2 construct: expressed in transfected cells; host or cells: LK35.2 mouse B cell line
T2 sequence (Q9NZQ7 19-290): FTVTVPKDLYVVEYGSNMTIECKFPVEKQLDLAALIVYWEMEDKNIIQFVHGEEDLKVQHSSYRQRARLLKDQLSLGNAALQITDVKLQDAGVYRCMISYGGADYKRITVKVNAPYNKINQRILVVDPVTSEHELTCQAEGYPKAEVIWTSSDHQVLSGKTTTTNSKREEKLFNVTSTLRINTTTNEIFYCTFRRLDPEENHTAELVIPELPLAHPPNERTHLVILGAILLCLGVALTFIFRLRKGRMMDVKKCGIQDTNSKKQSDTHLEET
Summary of the method: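 Binding of PE-conjugated human PD-1-Ig (1 nM final) to human PD-L1 stably expressed on a mouse B-cell line (LK35.2) was measured by high-content imaging after washes. Compound and labeled PD-1-Ig were co-incubated 1 h at 37 °C with cells in RPMI/10% FCS.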

[3] = cell binding assay, cell line not given
[4] = cell line of CBA not given (LK35.2-hPD-L1 or 293T-hPD-L1)

SMILES | IC50 [1] [nM] | IC50 [2, 3] [nM] | IC50 [2, 4] [nM]
CCCC[C@H]1C(=O)N(C)[C@@H](CCCC)C(=O)N[C@@H](CCCNC(=N)N)C(=O)NC(C(=O)NCC(N)=O)CCSCC(=O)N[C@@H](Cc2ccc(O)cc2)C(=O)N(C)[C@@H](C)C(=O)N[C@@H](CC(N)=O)C(=O)N2CCC[C@H]2C(=O)N[C@@H](Cc2cnc[nH]2)C(=O)N[C@@H](CC(C)C)C(=O)N2CCC[C@H]2C(=O)N[C@@H](Cc2c[nH]c3ccccc23)C(=O)N[C@@H](CO)C(=O)N[C@@H](Cc2c[nH]c3ccccc23)C(=O)N1C (stereo partly shown) [Example 9019] ({CH2CO}-Y[NMeA]NPHLPWSW[NMeNle][NMeNle]R[ξhCys]G-NH2; thioether N-14) | 6.76 to 30.3 | > 74.3 | –
CCCC[C@H]1C(=O)N(C)[C@@H](CCCC)C(=O)N[C@@H](CCCNC(=N)N)C(=O)N[C@H](C(=O)NCC(N)=O)CSCC(=O)N[C@@H](Cc2ccc(Cl)c(Cl)c2)C(=O)N(C)[C@@H](C)C(=O)N[C@@H](CC(N)=O)C(=O)N2CCC[C@H]2C(=O)N[C@@H](CN)C(=O)N[C@@H](CC(C)C)C(=O)N2C[C@H](O)C[C@H]2C(=O)N[C@@H](Cc2c[nH]c3ccccc23)C(=O)N[C@@H](CO)C(=O)N[C@@H](Cc2c[nH]c3ccccc23)C(=O)N1C [Example 7063] ({CH2CO}-[Phe(3,4-Cl2)][NMeA]NP[Dap]L[Hyp]WSW[NMeNle][NMeNle]RCG-NH2; thioether N-14) | 0.385 to 6.74 | 4.78 to 72.9 | –
CCCC[C@H]1C(=O)N(C)[C@@H](CC(C)C)C(=O)N[C@@H](CN)C(=O)N[C@H](C(=O)NCC(N)=O)CSCC(=O)N[C@@H](Cc2ccc(O)cc2)C(=O)N(C)[C@@H](C)C(=O)N[C@@H](CC(N)=O)C(=O)N2CCC[C@H]2C(=O)N[C@@H](Cc2c[nH]cn2)C(=O)N[C@@H](CCC(=O)O)C(=O)N2C[C@H](O)C[C@H]2C(=O)N[C@@H](Cc2c[nH]c3ccccc23)C(=O)N[C@@H](CCN)C(=O)N[C@@H](Cc2c[nH]c3ccccc23)C(=O)N1C [Example 5141] ({CH2CO}-Y[NMeA]NPHE[Hyp]W[Dab]W[NMeNle][NMeL][Dap]CG-NH2; thioether N-14) | 0.385 to 6.74 | 4.78 to 72.9 | –
CCCC[C@H]1C(=O)N(C)[C@@H](CCCC)C(=O)N[C@@H](CCCNC(=N)N)C(=O)N[C@H](C(=O)NCC(N)=O)CSCC(=O)N[C@@H](Cc2ccc(Cl)cc2)C(=O)N(C)[C@@H](C)C(=O)N[C@@H](CC(N)=O)C(=O)N2CCC[C@H]2C(=O)N[C@@H](CN)C(=O)N[C@@H](CC(C)C)C(=O)N2C[C@H](O)C[C@H]2C(=O)N[C@@H](Cc2c[nH]c3ccccc23)C(=O)N[C@@H](CO)C(=O)N[C@@H](Cc2c[nH]c3ccccc23)C(=O)N1C [Example 7044] ({CH2CO}-[Phe(4-Cl)][NMeA]NP[Dap]L[Hyp]WSW[NMeNle][NMeNle]RCG-NH2; thioether N-14) | 0.385 to 6.74 | 4.78 to 72.9 | –
CCCC[C@H]1C(=O)N(C)[C@@H](CCCC)C(=O)N[C@@H](C)C(=O)N[C@H](C(=O)NCC(N)=O)CSCC(=O)N[C@@H](Cc2ccc(O)cc2)C(=O)N(C)[C@@H](C)C(=O)N[C@@H](CCCN)C(=O)N2CCC[C@H]2C(=O)N[C@@H](Cc2cnc[nH]2)C(=O)N[C@@H](CCC(=O)O)C(=O)N2C[C@H](O)C[C@H]2C(=O)N[C@@H](Cc2c[nH]c3ccccc23)C(=O)N[C@@H](CO)C(=O)N[C@@H](Cc2c[nH]c3ccccc23)C(=O)N1C [Example 1179] ({CH2CO}-Y[NMeA][Orn]PHE[Hyp]WSW[NMeNle][NMeNle]ACG-NH2; thioether N-14) | 0.385 to 6.74 | – | 4.78 to 72.9
CCCC[C@H]1C(=O)N(C)CC(=O)N[C@@H](CC(=O)O)C(=O)N[C@@H](C(C)C)C(=O)N(C)[C@@H](Cc2ccccc2)C(=O)N[C@@H](Cc2ccc(O)cc2)C(=O)N(C)CC(=O)N[C@@H](Cc2c[nH]c3ccccc23)C(=O)N[C@@H](Cc2ccc(O)cc2)C(=O)N[C@@H](CC(C)C)C(=O)N[C@H](C(=O)NCC(N)=O)CSCC(=O)N[C@@H](Cc2cc(Cl)c(F)c(Cl)c2)C(=O)N(C)[C@@H](Cc2ccccc2)C(=O)N1C [Example 3185] ({CH2CO}-[X12][NMeF][NMeNle][Sar]DV[NMeF]Y[Sar]WYLCG-NH2; thioether N-13) | 6.76 to 30.3 | – | 4.78 to 72.9
CCCC[C@H]1C(=O)N(C)[C@@H](CCSC)C(=O)N[C@@H](CCCNC(=N)N)C(=O)NC(C(=O)NCC(N)=O)CSCC(=O)N[C@@H](Cc2ccc(O)cc2)C(=O)N(C)[C@@H](C)C(=O)N[C@@H](CC(N)=O)C(=O)N2CCC[C@H]2C(=O)N[C@@H](Cc2cnc[nH]2)C(=O)N[C@@H](CO)C(=O)N2C[C@H](O)C[C@H]2C(=O)N[C@@H](Cc2c[nH]c3ccccc23)C(=O)N[C@@H](CO)C(=O)N[C@@H](Cc2c[nH]c3ccccc23)C(=O)N1C (stereo partly shown) [Example 9107] ({CH2CO}-Y[NMeA]NPHS[Hyp]WSW[NMeNle][NMeM]R[ξC]G-NH2; thioether N-14) | 6.76 to 30.3 | 4.78 to 72.9 | –
CCCC[C@H]1C(=O)N2C[C@@H](O)C[C@@H]2C(=O)N[C@@H](CC(N)=O)C(=O)N[C@@H](C(C)C)C(=O)N(C)[C@@H](Cc2ccccc2)C(=O)N[C@@H](Cc2ccc(O)cc2)C(=O)N2CCCC[C@@H]2C(=O)N[C@@H](Cc2c[nH]c3ccccc23)C(=O)N[C@@H](Cc2ccc(O)cc2)C(=O)N[C@@H](CCCN)C(=O)N[C@H](C(=O)NCC(N)=O)CSCC(=O)N[C@@H](Cc2cc(F)c(F)c(F)c2)C(=O)N(C)[C@@H](Cc2ccccc2)C(=O)N1C [Example 3613] ({CH2CO}-[Phe(3,4,5-F3)][NMeF][NMeNle][dHyp]NV[NMeF]Y[dPip]WY[Orn]CG-NH2; thioether N-13) | 0.385 to 6.74 | 0.158 to 4.71 | –
CCCC[C@H]1C(=O)N(C)[C@@H](CCCC)C(=O)N[C@@H](CCCNC(=N)N)C(=O)N[C@H](C(=O)NCC(N)=O)CSCC(=O)N[C@@H](Cc2ccc(O)cc2)C(=O)N(C)[C@@H](C)C(=O)N[C@@H](CC(N)=O)C(=O)N2CCC[C@H]2C(=O)N[C@@H](Cc2cnc[nH]2)C(=O)N[C@@H](CC(C)C)C(=O)N2C[C@H](C#N)C[C@H]2C(=O)N[C@@H](Cc2c[nH]c3ccccc23)C(=O)N[C@@H](CO)C(=O)N[C@@H](Cc2c[nH]c3ccccc23)C(=O)N1C [Example 6022] | 0.385 to 6.74 | 0.158 to 4.71 | –
CCCC[C@H]1C(=O)N(C)[C@@H](CCCC)C(=O)N[C@@H](CCCNC(=N)N)C(=O)N[C@H](C(=O)NCC(N)=O)CSCC(=O)N[C@@H](Cc2ccccc2)C(=O)N(C)[C@@H](C)C(=O)N[C@@H](CC(N)=O)C(=O)N2CCC[C@H]2C(=O)N[C@@H](Cc2cnc[nH]2)C(=O)N[C@@H](CC(C)C)C(=O)N(C)CC(=O)N[C@@H](Cc2c[nH]c3ccccc23)C(=O)N[C@@H](CCCN)C(=O)N[C@@H](Cc2c[nH]c3ccccc23)C(=O)N1C [Example 1070] ({CH2CO}-F[NMeA]NPHL[Sar]W[Orn]W[NMeNle][NMeNle]RCG-NH2; thioether N-14) | 6.76 to 30.3 | – | 4.78 to 72.9
CCCC[C@H]1C(=O)N(C)CC(=O)N[C@@H](CC(=O)O)C(=O)N[C@@H](C(C)C)C(=O)N(C)[C@@H](Cc2ccccc2)C(=O)N[C@@H](Cc2ccc(O)cc2)C(=O)N(C)[C@@H](Cc2ccc(O)cc2)C(=O)N[C@@H](Cc2c[nH]c3ccccc23)C(=O)N[C@@H](Cc2ccc(O)cc2)C(=O)N[C@@H](CC(C)C)C(=O)N[C@H](C(=O)NCC(N)=O)CSCC(=O)N[C@@H](Cc2ccccc2)C(=O)N(C)[C@@H](Cc2ccccc2)C(=O)N1C [Example 3511] (HELM PEPTIDE1{[O=C(C[*:3])[*:2]].F.[meF].[CCCC[C@@H](C(=O)[*:2])N(C)[*:1]].[Sar].D.V.[meF].Y.[meY].W.Y.L.C.G.[am]}$PEPTIDE1,PEPTIDE1,1:R3-14:R3$$$V2.0) | > 30.5 | 4.78 to 72.9 | –
CCCC[C@H]1C(=O)N[C@@H](CN)C(=O)N[C@H](C(=O)NCC(N)=O)CSCC(=O)N[C@@H](Cc2ccc(O)cc2)C(=O)N(C)[C@@H](C)C(=O)N[C@@H](CC(N)=O)C(=O)N2CCC[C@H]2C(=O)N[C@@H](Cc2c[nH]cn2)C(=O)N[C@@H](CCC(=O)O)C(=O)N2C[C@H](O)C[C@H]2C(=O)N[C@@H](Cc2c[nH]c3ccccc23)C(=O)N[C@@H](CCN)C(=O)N[C@@H](Cc2c[nH]c3ccccc23)C(=O)N(C)[C@@H](CC(C)C)C(=O)N1C [Example 5143] ({CH2CO}-Y[NMeA]NPHE[Hyp]W[Dab]W[NMeL][NMeNle][Dap]CG-NH2; thioether N-14) | 0.385 to 6.74 | 4.78 to 72.9 | –
CCCC[C@H]1C(=O)N2C[C@@H](O)C[C@@H]2C(=O)N[C@@H](CC(N)=O)C(=O)N[C@@H](C(C)C)C(=O)N(C)[C@@H](Cc2ccccc2)C(=O)N[C@@H](CCCN)C(=O)N2CCOC[C@@H]2C(=O)N[C@@H](Cc2c[nH]c3ccccc23)C(=O)N[C@@H](Cc2ccc(O)cc2)C(=O)N[C@@H](CCCN)C(=O)N[C@H](C(=O)NCC(N)=O)CSCC(=O)N[C@@H](Cc2cc(F)c(F)c(F)c2)C(=O)N(C)[C@@H](Cc2ccccc2)C(=O)N1C [Example 3607] ({CH2CO}-[Phe(3,4,5-F3)][NMeF][NMeNle][dHyp]NV[NMeF][Orn][X4]WY[Orn]CG-NH2; thioether N-13) | 0.385 to 6.74 | 0.158 to 4.71 | –
CCCC[C@H]1C(=O)N(C)[C@@H](CCCC)C(=O)N[C@@H](CCCNC(=N)N)C(=O)N[C@H](C(=O)NCC(N)=O)CSCC(=O)N[C@@H](Cc2ccccc2)C(=O)N(C)[C@@H](C)C(=O)N[C@@H](CC(=O)O)C(=O)N2CCC[C@H]2C(=O)N[C@@H](Cc2cnc[nH]2)C(=O)N[C@@H](CC(C)C)C(=O)N(C)CC(=O)N[C@@H](Cc2c[nH]c3ccccc23)C(=O)N[C@@H](CO)C(=O)N[C@@H](Cc2c[nH]c3ccccc23)C(=O)N1C [Example 1092] ({CH2CO}-F[NMeA]DPHL[Sar]WSW[NMeNle][NMeNle]RCG-NH2; thioether N-14) | 6.76 to 30.3 | – | 4.78 to 72.9
